pIC50: −log10 of the molar value. Where two headings read alike, the source gives them in different places.
Experiments:
[1] = system: B lymphoma (BKS-2); conditions: mouse, in vivo; cited from earlier work
[2] = system: Whole blood B cells; assay: CD69 Whole Blood Assay; type: cell-based; conditions: Homo sapiens, B-cell, anti-IgM stimulated; for pIC50: read-out: average IC50; for IC50: read-out: average pIC50 (converted)
Procedure: Whole blood B cells are stimulated ex-vivo using anti-IgM. […] The subsequent autophosphorylation of Syk leads to initiation of a signalling cascade resulting in B cell activation as indicated by expression of the activation marker CD69 on the cell surface. CD20/CD69+ve whole blood B cells are detected by flow cytometry.
100 μl heparinised human blood was added to a 5 ml polypropylene tube containing 1 μl appropriately diluted compound solution and incubated for 25 min at 37° C. with 5% CO2. B cells were stimulated with 10 μl Fab′2 fragments of goat anti-human IgM (43 μg/ml final concentration) for a further 3.5 h under the conditions previously described. The red blood cells were lysed and all other cells fixed by the addition of 2 ml Lyse/Fix buffer for 10 min at room temperature.
The cells were stained using a cocktail of mouse anti-human CD20 FITC and mouse anti-human CD69 PE conjugated antibodies. CD20/CD69+ve B cells present in the sample were detected by flow cytometry.
Compound was prepared as a 10 mM stock in DMSO, further diluted down in DMSO to 1 mM and a dilution series prepared in DMSO using 7 successive 3-fold dilutions to give the final concentration range to be tested of 1×10^−5 to 4.57×10^−9M. Compound dilutions were prepared using the Biomek 2000 automated robotic pipetting system.

[3] = target: T1, SYK lysate (Homo sapiens, UniProt P43405); assay: Basic Syk Enzyme Activity; type: biochemical; conditions: read-out: average pIC50 (converted)
T1 construct: Stimulation of Ramos Cells with Anti-IgM Ab to Produce Syk & Preparation of Lysates; endogenous in cells; host or cells: Ramos B cells (human Burkitt's lymphoma, clone 296.4C10, ATCC), stimulated with anti-IgM and lysed in 1% Triton X-100
Procedure: 3 μl of SYK lysate diluted 16-fold in assay buffer (20 mM TRIS pH 7.4, 0.01% BSA, 0.1% Pluronic F-68) was added to wells containing 0.1 μl of various concentrations of compound or DMSO vehicle (1.7% final) in a Greiner low volume 384 well black plate. Following 15 min pre-incubation at room temperature, the reaction was initiated by the addition of 3 μl of substrate reagent containing Y7 Sox peptide, (Invitrogen Cat. # KNZ3071, 5 μM final), ATP (35 μM final) and MgCl2 (10 mM final) in assay buffer. The reaction was incubated at room temperature before measuring fluorescence intensity (λex 360/λem 485) on an Envision plate reader (Perkin Elmer Life Sciences, Waltham, Mass., USA) at 15 min and 55 min post-substrate addition.
Ramos B Cells (human B cells of Burkitt's lymphoma, clone 296.4C10, ATCC) were cultured in suspension in growth medium (RPMI-1640, Sigma; supplemented with 2 mM L-glutamine, Gibco; 10 mM Hepes, Sigma; 1 mM sodium pyruvate, Sigma; 10% v/v heat-inactivated FCS, Gibco). Cells were grown in Corning Cellstacks (6360 cm^2) in 1 liter volume and viability and cell density were monitored daily. Cells were maintained at <1.5×10e6/ml and >92% viability.
Cells were stimulated at 20×10^6 cells/ml using 15 ug/ml (final concentration) anti-IgM antibody. Following harvest (as described above), a total of 4×10^9 cells were resuspended in 180 ml pre-warmed (37° C.) DPBS in a Corning 500 ml centrifuge bottle. 20 ml anti-IgM antibody at 150 ug/ml were added to each 500 ml centrifuge bottle (working stock made up in DPBS pre-warmed to 37° C.). Cells were incubated for exactly 5 min at 37° C. following the addition of anti IgM antibody. Following 5 min stimulation, 300 ml ice-cold DPBS were added to each bottle to stop the stimulation (temperature drops to ˜12° C.) then cells were centrifuged at 2000 rpm (Sorvall Legend RT+ centrifuge—pre-chilled to 4° C.). Cells were washed by resuspension in ice-cold DPBS and centrifugation as above. The cell pellet was then lysed in ice-cold lysis buffer containing 1% triton-x-100 at a ratio of 150 ul/1×10^7 cells (i.e. 48 ml lysis buffer). Following the addition of lysis buffer, the cells were pipetted up & down & kept on ice for 15 min. The clarified lysate was then obtained by centrifugation (Sorvall Evolution RC (SLA-1500 rotor, ˜20,000 g (˜14,500 rpm), 45 min, 4° C.).
Lysate was aliquoted, snap-frozen on dry-ice & stored at −80° C. prior to assay.
Lysis Buffer: 50 mM TRIS pH7.5+150 mM NaCl+1% Triton-X-100+2 mM EGTA+1:100 dilution inhibitor cocktails (phosphatase inhibitor cocktail set II, calbiochem cat no. 524625 & protease inhibitor cocktail set V, calbiochem cat no. 539137)

[4] = target: T2, hERG (Homo sapiens, UniProt Q12809); assay: Cy3B Dofetilide Fluoro-Ligand Binding Assay for hERG; conditions: membranes of CHO-K1 cells that express hERG, pH 7.4, probe Cy3b-Dofetilide fluoro-ligand, 1.0 nM, hERG-expressing CHO-K1 membranes
T2 construct: expressed in transfected cells; host or cells: CHO-K1 cells stably expressing human hERG; membrane fraction
T2 sequence (Q12809 whole entry): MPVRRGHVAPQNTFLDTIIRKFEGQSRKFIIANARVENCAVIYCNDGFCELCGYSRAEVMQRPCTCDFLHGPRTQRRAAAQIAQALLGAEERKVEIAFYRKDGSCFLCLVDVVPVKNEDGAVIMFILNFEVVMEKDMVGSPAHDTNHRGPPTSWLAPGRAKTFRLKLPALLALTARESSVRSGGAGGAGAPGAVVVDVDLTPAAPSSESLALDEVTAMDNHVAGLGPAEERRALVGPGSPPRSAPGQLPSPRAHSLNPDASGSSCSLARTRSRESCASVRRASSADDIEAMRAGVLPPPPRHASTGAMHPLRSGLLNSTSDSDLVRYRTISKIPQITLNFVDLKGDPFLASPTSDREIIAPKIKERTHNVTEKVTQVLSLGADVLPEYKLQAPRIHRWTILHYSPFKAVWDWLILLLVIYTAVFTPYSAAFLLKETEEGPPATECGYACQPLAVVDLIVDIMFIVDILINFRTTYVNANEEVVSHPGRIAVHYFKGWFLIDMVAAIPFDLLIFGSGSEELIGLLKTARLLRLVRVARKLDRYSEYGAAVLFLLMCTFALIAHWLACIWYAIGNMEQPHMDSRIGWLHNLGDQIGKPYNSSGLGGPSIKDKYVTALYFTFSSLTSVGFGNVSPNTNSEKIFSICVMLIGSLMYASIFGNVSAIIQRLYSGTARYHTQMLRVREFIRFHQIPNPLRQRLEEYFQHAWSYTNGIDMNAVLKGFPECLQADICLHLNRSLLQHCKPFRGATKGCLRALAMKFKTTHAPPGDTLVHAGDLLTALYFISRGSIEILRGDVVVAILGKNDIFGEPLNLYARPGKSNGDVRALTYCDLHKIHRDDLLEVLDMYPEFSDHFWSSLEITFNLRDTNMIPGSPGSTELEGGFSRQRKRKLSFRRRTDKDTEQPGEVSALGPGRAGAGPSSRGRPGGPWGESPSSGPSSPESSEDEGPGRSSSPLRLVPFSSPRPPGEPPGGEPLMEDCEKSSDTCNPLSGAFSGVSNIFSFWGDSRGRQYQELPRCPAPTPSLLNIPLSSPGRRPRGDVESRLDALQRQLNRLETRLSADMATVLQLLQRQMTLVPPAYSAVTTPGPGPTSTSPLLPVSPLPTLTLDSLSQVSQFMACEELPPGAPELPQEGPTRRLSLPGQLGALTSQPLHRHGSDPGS
Procedure: Compound potencies were determined by a fluoro-ligand^§ (Cy3b-Dofetilide) fluorescence polarisation assay.
hERG-expressing CHO-K1 membranes* (60 μg/ml) were incubated with 1.0 nM fluoro-ligand^§, in assay buffer (25 mM HEPES, 1.2 mM MgCl2, 100 mM KCl and 0.1% pluronic, pH adjusted to 7.4 using 5M KOH). The final potassium concentration in the assay was 100 mM. After 70 min mixing at room temperature, in the dark, 10 μl was dispensed into each well of a black LV Greiner 384-well plate containing 0.1 μl of test compound in DMSO. The plates were left to equilibrate for 2 h before reading on an Acquest™/Analyst™ imager. pIC50 data were generated using from an 11-point inhibition curve (top assay concentration of 50 μM and a 1:3 step-dilution), a […] curve-fit being applied using ABase and XC50 to analyse data and generate curve fits.
Chinese Hamster Ovary (CHO) cells stably expressing the human hERG receptor were grown to 80% confluency before being harvested by trypsinisation and subsequent centrifugation at 500 g for 10 min. Cell pellets were frozen at −80 C before membrane production. The frozen pellet was thawed on ice, re-suspended and homogenised in 10 volumes of membrane buffer (50 mM HEPES, pH 7.4, 1 mM EDTA, 1 mM PMSF, 2×10^-6M Pepstatin A). The membrane suspension was centrifuged for 20 min at 500 g, the pellet discarded and the supernatent spun again at 48,000 g for 30 min. Following the second centrifugation the remaining pellet containing the membrane fraction was re-suspended in an appropriate volume (4 ml for each ml of frozen cell pellet) and assayed for protein concentration.

[5] = system: allergic rhinitis; conditions: intranasal, phase I/II; cited from earlier work
[6] = system: allergic rhinitis; conditions: phase II; cited from earlier work
[7] = system: B-Cell non-Hodgkin's lymphoma (NHL); conditions: cited from earlier work
[8] = as the free base, read-out: average IC50
[9] = form not stated (first list), read-out: average pIC50 (converted)

Row | Structure (SMILES) | pIC50 ([2]; as the free base) | IC50 ([2]; as the free base) [µM] | IC50 ([3]; as the free base) [µM] | IC50 at 2 h [4, 8] [µM] | IC50 at 2 h [4, 9] [µM] | also measured
1 | COc1cc(/C=C/C(=O)CC(=O)/C=C/c2ccc(O)c(OC)c2)ccc1O [curcumin] |  |  |  |  |  | tumour burden as measured by the total splenocyte number [1]: significant reduction
2 | FC1(CNc2nc(-c3cnn(Cc4ccccc4)c3)cc3ncccc23)CCCNC1 (racemic) [Example 10, N-[(3-fluoro-3-piperidinyl)methyl]-7-[1-(phenylmethyl)-1H-pyrazol-4-yl]-1,6-naphthyridin-5-amine] | > 6.00 | ≤ 1 | ≤ 0.1 | > 10 | > 10 | 
3 | Oc1cccc(Nc2ncc(F)c(Nc3cccc(O)c3)n2)c1 [Example R112] |  |  |  |  |  | PGD2 [5]: statistically significant decrease; clinical safety [5]: safe across a range of indicators; efficacy versus placebo [6]: lack of efficacy
4 | COCCn1cc(-c2cc3ncccc3c(NC[C@]3(F)CCCNC3)n2)cn1 [Example 7, N-{[(3S)-3-fluoro-3-piperidinyl]methyl}-7-{1-[2-(methyloxy)ethyl]-1H-pyrazol-4-yl}-1,6-naphthyridin-5-amine] | > 6.00 | ≤ 1 | ≤ 0.1 | > 10 | > 10 | 
5 | FC1(CNc2nc(-c3cnn(C4CCCC4)c3)cc3ncccc23)CCCNC1 (racemic) [Example 8, 7-(1-cyclopentyl-1H-pyrazol-4-yl)-N-[(3-fluoro-3-piperidinyl)methyl]-1,6-naphthyridin-5-amine] | > 6.00 | ≤ 1 | ≤ 0.1 | > 10 | > 10 | 
6 | CC(C)(O)Cn1cc(-c2cc3ncccc3c(NC[C@]3(F)CCCNC3)n2)cn1 [Example 5, 1-{4-[5-({[(3S)-3-fluoro-3-piperidinyl]methyl}amino)-1,6-naphthyridin-7-yl]-1H-pyrazol-1-yl}-2-methyl-2-propanol] |  | ≤ 1 | ≤ 0.1 | > 10 | > 10 | 
7 | OCCn1cc(-c2cc3ncccc3c(NC[C@]3(F)CCCNC3)n2)cn1 [Example 6, 2-{4-[5-({[(3S)-3-fluoro-3-piperidinyl]methyl}amino)-1,6-naphthyridin-7-yl]-1H-pyrazol-1-yl}ethanol] |  |  |  |  |  | pIC50 ([2]; hydrochloric acid salts): > 6.00; IC50 ([2]; hydrochloric acid salts): ≤ 1 µM; IC50 ([3]; hydrochloric acid salts): ≤ 0.316 µM; IC50 at 2 h ([4]; hydrochloric acid salts, read-out: average IC50): > 20 µM; IC50 at 2 h ([4]; hydrochloric acid salts, read-out: average pIC50 (converted)): > 10 µM
8 | COc1cc(Nc2ncc(F)c(Nc3ccc4c(n3)N(COP(=O)(O)O)C(=O)C(C)(C)O4)n2)cc(OC)c1OC [Example R788, fostamatinib disodium] |  |  |  |  |  | therapeutic benefit ([7]; patients with DLBCL and CLL/SLL): therapeutic benefit; tolerability ([7]; patients with relapsed or refractory B-Cell NHL): well-tolerated

Second part, led by results:

Row | pIC50 ([2]; as the free base) | IC50 ([2]; as the free base) [µM] | IC50 ([3]; as the free base) [µM] | Structure (SMILES) | IC50 at 2 h [4, 8] [µM] | IC50 at 2 h [4, 9] [µM] | also measured
9 | > 6.00 | ≤ 1 | ≤ 0.1 | CC(C)n1cc(-c2cc3ncccc3c(NCC3(F)CCCNC3)n2)cn1 (single isomer, unassigned) [Example 11A, N-{[3-fluoro-3-piperidinyl]methyl}-7-[1-(1-methylethyl)-1H-pyrazol-4-yl]-1,6-naphthyridin-5-amine] | > 10 | > 10 | 
10 | > 6.00 | ≤ 1 | ≤ 0.1 | FC(F)(F)Cn1cc(-c2cc3ncccc3c(NCC3(F)CCCNC3)n2)cn1 (single isomer, unassigned) [Example 9A, N-{[3-fluoro-3-piperidinyl]methyl}-7-[1-(2,2,2-trifluoroethyl)-1H-pyrazol-4-yl]-1,6-naphthyridin-5-amine] | > 10 | > 10 | 
